Source: patent publication US8133901B2, “3-heteroaryl (amino or amido)-1-(biphenyl or phenylthiazolyl) carbonylpiperidine derivatives as orexin receptor inhibitors” (Actelion Pharmaceuticals Ltd., priority 2006, dated 2012)

What was measured:
human orexin-1 receptor = molecular target: T1, human orexin-1 receptor (Homo sapiens, UniProt O43613); assay: Intracellular calcium measurements (FLIPR), orexin receptor antagonistic activity, OX1; format: cell-based; settings: CHO cells expressing the human orexin-1 receptor; 10 nM orexin-A as agonist; fluo-3 calcium signal
T1 construct: expressed in transfected cells; host or cells: CHO cells (G418 selection)
T1 sequence (O43613 1-425): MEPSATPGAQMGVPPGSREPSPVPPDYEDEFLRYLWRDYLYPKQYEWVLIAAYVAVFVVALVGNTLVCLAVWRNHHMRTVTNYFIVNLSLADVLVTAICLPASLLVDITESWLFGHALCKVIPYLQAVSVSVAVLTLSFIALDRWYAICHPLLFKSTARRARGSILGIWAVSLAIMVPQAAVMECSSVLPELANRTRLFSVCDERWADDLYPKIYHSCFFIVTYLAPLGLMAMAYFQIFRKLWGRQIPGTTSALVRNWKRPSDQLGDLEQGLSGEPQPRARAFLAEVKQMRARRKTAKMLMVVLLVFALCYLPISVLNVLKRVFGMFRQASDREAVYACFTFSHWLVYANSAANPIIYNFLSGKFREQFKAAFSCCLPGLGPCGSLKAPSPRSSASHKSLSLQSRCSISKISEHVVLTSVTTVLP
Protocol: (§1) The orexin receptor antagonistic activity of the compounds of formula (I) is determined in accordance with the following experimental method.
(§2) Chinese hamster ovary (CHO) cells expressing the human orexin-1 receptor and the human orexin-2 receptor, respectively, are grown in culture medium (Ham F-12 with L-Glutamine) containing 300 μg/ml G418, 100 U/ml penicillin, 100 μg/ml streptomycin and 10% inactivated fetal calf serum (FCS). The cells are seeded at 80′000 cells/well into 96-well black clear bottom sterile plates (Costar) which have been precoated with 1% gelatine in Hanks' Balanced Salt Solution (HBSS). All reagents are from Gibco BRL. The seeded plates are incubated overnight at 37° C. in 5% CO2.
(§3) Human orexin-A as an agonist is prepared as 1 mM stock solution in methanol:water (1:1), diluted in HBSS containing 0.1% bovine serum albumin (BSA) and 2 mM HEPES for use in the assay at a final concentration of 10 nM.
(§4) Antagonists are prepared as 10 mM stock solution in DMSO, then diluted in 96-well plates, first in DMSO, then in HBSS containing 0.1% bovine serum albumin (BSA) and 2 mM HEPES.
(§5) On the day of the assay, 100 μl of loading medium (HBSS containing 1% FCS, 2 mM HEPES, 5 mM probenecid (Sigma) and 3 μM of the fluorescent calcium indicator fluo-3 AM (1 mM stock solution in DMSO with 10% pluronic acid) (Molecular Probes) is added to each well.
(§6) The 96-well plates are incubated for 60 min at 37° C. in 5% CO2. The loading solution is then aspirated and cells are washed 3 times with 200 μl HBSS containing 2.5 mM probenecid, 0.1% BSA, 2 mM HEPES. 100 μl of that same buffer is left in each well.
(§7) Within the Fluorescent Imaging Plate Reader (FLIPR, Molecular Devices), antagonists are added to the plate in a volume of 50 μl, incubated for 20 min and finally 100 μl of agonist is added. Fluorescence is measured for each well at 1 second intervals, and the height of each fluorescence peak is compared to the height of the fluorescence peak induced by 10 nM orexin-A with buffer in place of antagonist. For each antagonist, IC50 value (the concentration of compound needed to inhibit 50% of the agonistic response) is determined.

human orexin-2 receptor = molecular target: T2, human orexin-2 receptor (Homo sapiens, UniProt O43614); assay: Intracellular calcium measurements (FLIPR), orexin receptor antagonistic activity, OX2; format: cell-based; settings: CHO cells expressing the human orexin-2 receptor; 10 nM orexin-A as agonist; fluo-3 calcium signal
T2 construct: expressed in transfected cells; host or cells: CHO cells (G418 selection)
T2 sequence (O43614 1-444): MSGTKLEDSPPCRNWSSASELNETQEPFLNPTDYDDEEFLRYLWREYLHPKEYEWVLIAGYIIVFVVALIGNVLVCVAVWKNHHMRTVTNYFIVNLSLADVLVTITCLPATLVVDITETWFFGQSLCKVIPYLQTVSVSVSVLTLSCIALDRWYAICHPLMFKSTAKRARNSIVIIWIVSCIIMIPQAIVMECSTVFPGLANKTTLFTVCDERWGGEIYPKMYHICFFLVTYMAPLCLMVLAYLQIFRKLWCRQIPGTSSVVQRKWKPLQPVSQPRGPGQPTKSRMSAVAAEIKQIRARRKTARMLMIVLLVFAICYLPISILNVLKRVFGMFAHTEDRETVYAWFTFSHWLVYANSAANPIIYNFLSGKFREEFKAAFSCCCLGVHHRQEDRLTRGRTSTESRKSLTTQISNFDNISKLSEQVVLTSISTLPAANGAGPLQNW
Protocol: as §1, §2, §3, §4, §5, §6, §7

IC50 (human orexin-1 receptor) | IC50 (human orexin-2 receptor) | Compound
294 nM | 392 nM | O=C(c1ccccc1-c1ccccc1)N1CCC[C@@H](Nc2ncc(Br)cn2)C1 [Example 1, (R)-Biphenyl-2-yl-[3-(5-bromo-pyrimidin-2-ylamino)-piperidin-1-yl]-methanone]
81 nM | 171 nM | O=C(c1ccccc1-c1ccccc1F)N1CCC[C@@H](Nc2ncc(Br)cn2)C1 [Example 3, (R)-[3-(5-Bromo-pyrimidin-2-ylamino)-piperidin-1-yl]-(2′-fluoro-biphenyl-2-yl)-methanone]
27 nM | 50 nM | Cc1cccc(-c2sc(C)nc2C(=O)N2CCC[C@@H](NC(=O)c3c(C)nc4sccn34)C2)c1 [Example 7, (R)-6-Methyl-imidazo[2,1-b]thiazole-5-carboxylic acid[1-(2-methyl-5-m-tolyl-thiazole-4-carbonyl)-piperidin-3-yl]-amide]
101 nM | 165 nM | Cc1ccc(-c2sc(C)nc2C(=O)N2CCC[C@@H](NC(=O)c3c(C)nc4sccn34)C2)cc1 [Example 9, (R)-6-Methyl-imidazo[2,1-b]thiazole-5-carboxylic acid[1-(2-methyl-5-p-tolyl-thiazole-4-carbonyl)-piperidin-3-yl]-amide]
65 nM | 97 nM | Cc1nc(C(=O)N2CCC[C@@H](NC(=O)c3c(C)nc4sccn34)C2)c(-c2ccccc2F)s1 [Example 15, (R)-6-Methyl-imidazo[2,1-b]thiazole-5-carboxylic acid{1-[5-(2-fluoro-phenyl)-2-methyl-thiazole-4-carbonyl]-piperidin-3-yl}-amide]
